Experimental data published in ChEMBL document CHEMBL4257081, “Inhibitors of the kynurenine pathway” (2016).
Calls of active or inactive are those of the source. The rule behind the calls is not given here.

Key:
Mus musculus [1] = assay: In vivo inhibition of IDO1 in po dosed LPS-induced C57BL/6 mouse assessed as reduction in plasma kynurenine levels measured after 2 to 48 hrs by LC/MS/MS analysis; format: functional
Mus musculus [2] = assay: Reduction in kynurenine levels in tumor of Balb/C mouse implanted with mouse CT26 cells at 50 mg/kg, po bid for 4 days measured 2 hrs post last dose by LC/MS/MS analysis relative to control; format: functional; set-up: scale not given: the % may be the effect or the level left
Mus musculus [3] = assay: Reduction in plasma kynurenine levels in Balb/C mouse implanted with mouse CT26 cells at 50 mg/kg, po bid for 4 days measured 2 hrs post last dose by LC/MS/MS analysis relative to control; format: functional; set-up: scale not given: the % may be the effect or the level left
[4] = target: Tryptophan 2,3-dioxygenase (Homo sapiens, UniProt P48775); assay: Inhibition of recombinant human TDO2 expressed in CHOK1 cells assessed as reduction in kynurenine formation using L-tryptophan as substrate measured after 2 hrs by LC/MS/MS analysis; format: cell-based
[5] = target: T1, Indoleamine 2,3-dioxygenase 1 (Homo sapiens, UniProt P14902); assay: Inhibition of recombinant human N-terminal His-tagged IDO1 (1 to 403 residues) expressed in Escherichia coli assessed as reduction in kynurenine formation using tryptophan as substrate measured by LC/MS/MS analysis
[6] = target: T1, Indoleamine 2,3-dioxygenase 1; assay: Inhibition of IDO1 in IFNgamma-stimulated human HeLa cells assessed as reduction in kynurenine formation using L-tryptophan as substrate measured after 15 mins by UV-vis HPLC analysis
Mus musculus [7] = assay: Reduction in plasma kynurenine levels in Balb/C mouse implanted with mouse CT26 cells at 50 mg/kg, po bid measured after 14 days by LC/MS/MS analysis relative to control; format: functional; set-up: scale not given: the % may be the effect or the level left
CT26 [8] = assay: Synergistic antitumor activity against mouse CT26 cells implanted in Balb/c mouse assessed as reduction in time of tumor progression at 50 mg/kg, po bid for 35 days starting from day 5 post doxorubucin administration followed by second doxorubicin dosing at 3 weeks post doxorubucin dose; format: functional, organism-based
CT26 [9] = assay: Synergistic antitumor activity against mouse CT26 cells implanted in Balb/c mouse assessed as reduction in tumor volume at 50 mg/kg, po bid for 35 days starting from day 5 post doxorubucin administration followed by second doxorubicin dosing at 3 weeks post doxorubucin dose measured 4 hrs post last dose; format: functional, organism-based
CT26 [10] = assay: Antitumor activity against mouse CT26 cells implanted in Balb/C mouse assessed as reduction in tumor growth at 50 mg/kg, po bid measured on day 1,4,6,9,11 and 14 relative to control; format: functional; set-up: scale not given: the % may be the effect or the level left
[11] = Ratio of drug level in brain to plasma in Sprague-Dawley rat at 10 mg/kg, iv administered as single dose measured after 1 hr by LC/MS/MS analysis; format: ADME, organism-based; conditions: brain and plasma, read-out: BPR
CT26 [12] = assay: Antitumor activity against mouse CT26 cells implanted in Balb/C mouse assessed as reduction in tumor growth at 40 mg/kg, po bid measured on day 1,4,6,9,11 and 14; format: functional, organism-based
[13] = Ratio of drug level in brain to plasma in Sprague-Dawley rat at 10 mg/kg, iv administered as single dose measured after 3 hrs by LC/MS/MS analysis; format: ADME, organism-based; conditions: brain and plasma, read-out: BPR
[14] = Ratio of drug level in brain to plasma in Sprague-Dawley rat at 10 mg/kg, iv administered as single dose measured after 0.5 hrs by LC/MS/MS analysis; format: ADME, organism-based; conditions: brain and plasma, read-out: BPR
Mus musculus [15] = assay: Reduction in plasma kynurenine levels in Balb/C mouse implanted with mouse CT26 cells at 40 mg/kg, po bid measured after 14 days by LC/MS/MS analysis relative to control; format: functional; set-up: scale not given: the % may be the effect or the level left
CT26 [16] = assay: Antitumor activity against mouse CT26 cells implanted in Balb/C mouse assessed as reduction in tumor growth at 60 mg/kg, po bid measured on day 1,4,6,9,11 and 14 relative to control; format: functional; set-up: scale not given: the % may be the effect or the level left
Mus musculus [17] = assay: Reduction in plasma kynurenine levels in Balb/C mouse implanted with mouse CT26 cells at 60 mg/kg, po bid measured after 14 days by LC/MS/MS analysis relative to control; format: functional; set-up: scale not given: the % may be the effect or the level left
Mus musculus [18] = assay: Reduction in plasma kynurenine levels in Balb/C mouse implanted with mouse CT26 cells at 75 mg/kg, po bid measured after 14 days by LC/MS/MS analysis relative to control; format: functional; set-up: scale not given: the % may be the effect or the level left
CT26 [19] = assay: Synergistic antitumor activity against mouse CT26 cells implanted in Balb/c mouse assessed as reduction in tumor volume at 75 mg/kg, po bid for 35 days starting from day 5 post doxorubucin administration followed by second doxorubicin dosing at 3 weeks post doxorubicin dose measured 4 hrs post last dose; format: functional, organism-based
CT26 [20] = assay: Synergistic antitumor activity against mouse CT26 cells implanted in Balb/c mouse assessed as reduction in time of tumor progression at 75 mg/kg, po bid for 35 days starting from day 5 post doxorubucin administration followed by second doxorubicin dosing at 3 weeks post doxorubicin dose; format: functional, organism-based
CT26 [21] = assay: Antitumor activity against mouse CT26 cells implanted in Balb/C mouse assessed as reduction in tumor growth at 75 mg/kg, po bid measured on day 1,4,6,9,11 and 14 relative to control; format: functional; set-up: scale not given: the % may be the effect or the level left

Chain of Tryptophan 2,3-dioxygenase (P48775 whole entry, the tested form may be a part): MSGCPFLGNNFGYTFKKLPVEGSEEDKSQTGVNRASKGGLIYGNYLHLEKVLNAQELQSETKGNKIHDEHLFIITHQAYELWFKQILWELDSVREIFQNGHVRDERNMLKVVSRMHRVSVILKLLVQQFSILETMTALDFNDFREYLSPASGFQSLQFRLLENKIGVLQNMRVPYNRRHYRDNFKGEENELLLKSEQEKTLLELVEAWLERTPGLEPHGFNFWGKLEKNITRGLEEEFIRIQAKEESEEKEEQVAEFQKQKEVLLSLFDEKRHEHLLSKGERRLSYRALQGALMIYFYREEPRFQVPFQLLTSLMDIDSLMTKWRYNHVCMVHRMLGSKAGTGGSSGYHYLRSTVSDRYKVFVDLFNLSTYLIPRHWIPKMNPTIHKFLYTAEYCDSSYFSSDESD
T1 sequence (P14902 whole entry, the tested form may be a part): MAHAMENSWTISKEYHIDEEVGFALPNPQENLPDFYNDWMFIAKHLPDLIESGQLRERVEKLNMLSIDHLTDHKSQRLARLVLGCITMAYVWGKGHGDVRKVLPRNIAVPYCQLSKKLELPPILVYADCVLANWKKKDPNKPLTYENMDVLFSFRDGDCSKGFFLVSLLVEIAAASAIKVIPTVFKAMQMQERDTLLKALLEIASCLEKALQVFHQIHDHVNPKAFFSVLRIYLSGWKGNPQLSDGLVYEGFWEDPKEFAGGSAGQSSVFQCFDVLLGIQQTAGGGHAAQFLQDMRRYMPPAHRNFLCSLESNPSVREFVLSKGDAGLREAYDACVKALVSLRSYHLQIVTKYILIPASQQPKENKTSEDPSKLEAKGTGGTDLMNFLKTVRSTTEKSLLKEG

SMILES	inhibition (INH) (Mus musculus [1])	Activity (Mus musculus [2])	Activity (Mus musculus [3])	other results
N#Cc1ccc(-c2nccc3c(Nc4ccc(F)c(Cl)c4)c(N)oc23)cc1	>50%	–	–	–
N#Cc1nccc2c(Nc3ccc(F)c(C(F)(F)F)c3)c(N)oc12	>50%	<25%	>=25 - 50%	–
Nc1oc2c(-c3ccncc3)nccc2c1Nc1ccc(F)c(C(F)(F)F)c1	>50%	–	–	–
Nc1oc2c(-c3ccccc3)nc(Oc3ccccc3)cc2c1Nc1ccc(F)c(Cl)c1	–	–	–	IC50 [4]: > 2000 nM; IC50 [5]: > 1000 nM
COc1ccccc1-c1nccc2c(Nc3ccc(F)c(Cl)c3)c(N)oc12	–	<25%	<25%	–
Nc1oc2c(-c3ccc(F)cc3)nccc2c1Nc1ccc(F)c(Cl)c1	>50%	–	–	–
C#Cc1cccc(Nc2c(N)oc3c(-c4ccccc4)nccc23)c1	>50%	–	–	–
Nc1oc2c(-c3ccc(F)c(F)c3F)nccc2c1Nc1ccc(F)c(Cl)c1	>50%	–	–	–
Nc1oc2cnc(F)cc2c1Nc1ccc(F)c(Cl)c1	>50%	<25%	>=25 - 50%	–
Nc1oc2cnc(F)cc2c1Nc1ccc(F)c(C(F)(F)F)c1	–	–	–	IC50 [6]: < 200 nM; IC50 [4]: < 500 nM
CNC(=O)c1cc(-c2nccc3c(Nc4ccc(F)c(Cl)c4)c(N)oc23)ccn1	–	>50%	>50%	–
Nc1oc2cnccc2c1Nc1ccc(F)c(F)c1	>50%	–	–	IC50 [4]: 500 to 2000 nM; IC50 [5]: 200 to 1000 nM
Cc1cc(-c2nccc3c(Nc4ccc(F)c(Cl)c4)c(N)oc23)cc(C)n1	>50%	>=25 - 50%	>=25 - 50%	–
Nc1oc2cnc(Cl)cc2c1Nc1ccc(F)c(Cl)c1	>50%	–	–	–
Cc1cc(-c2nccc3c(Nc4ccc(F)cc4)c(N)oc23)ccn1	>50%	–	–	–
O=C(Nc1oc2cnccc2c1N(C(=O)OCc1ccccc1)c1ccc(F)c(Cl)c1)OCc1ccccc1	>50%	–	–	–
CCOC(=O)Nc1oc2cnccc2c1Nc1ccc(F)c(Cl)c1	–	–	–	IC50 [4]: > 2000 nM; IC50 [5]: > 1000 nM
Nc1oc2c(-c3ccncc3)nccc2c1Nc1ccc(F)c(F)c1	>50%	>50%	>50%	Activity (Mus musculus [7]): 40 - 50%; Activity (CT26 [8]): Active; Activity (CT26 [9]): Active; Activity (CT26 [10]): 26 - 38%
Nc1oc2cnccc2c1Nc1ccc(F)c(Cl)c1	>50%	–	–	Kp at 1 h [11]: 10.7; Activity (CT26 [12]): Active; Kp at 3 h [13]: 6; Kp at 0.5 h [14]: 9.8; Activity (Mus musculus [15]): 40 - 50%
Nc1oc2cnccc2c1Nc1ccc(F)c(Br)c1	>50%	–	–	–
Nc1oc2c(-c3ccncc3)nc(F)cc2c1Nc1ccc(F)c(Cl)c1	>50%	>=25 - 50%	<25%	–
COCCNC(=O)c1ccc(-c2nccc3c(Nc4ccc(F)c(Cl)c4)c(N)oc23)cc1	>50%	–	–	–

SMILES	inhibition (INH) (Mus musculus [1])	Activity (Mus musculus [2])	Activity (Mus musculus [3])	other results
Nc1oc2c(Cl)nccc2c1Nc1ccc(F)c(Cl)c1	>50%	>=25 - 50%	>=25 - 50%	Activity (CT26 [16]): 26 - 38%; Activity (Mus musculus [17]): 40 - 50%
Nc1oc2c(-c3cccc4ccccc34)nccc2c1Nc1ccc(F)c(Cl)c1	>=25 - 50%	>50%	>50%	–
Nc1sc2c(-c3ccncc3)cccc2c1Nc1ccc(F)c(Cl)c1	>=25 - 50%	–	–	–
Nc1sc2ccccc2c1Nc1cccc(Cl)c1	>=25 - 50%	–	–	–
Nc1oc2c(F)nc(F)cc2c1Nc1ccc(F)c(Cl)c1	>=25 - 50%	>50%	>=25 - 50%	–
COc1ccc(-c2nccc3c(Nc4ccc(F)c(Cl)c4)c(N)oc23)cc1	>50%	–	–	–
Nc1sc2ccccc2c1Nc1ccc(F)c(Cl)c1	>=25 - 50%	–	–	–
Nc1oc2c(-c3ccccc3Cl)nccc2c1Nc1ccc(F)c(Cl)c1	>=25 - 50%	–	–	IC50 [6]: < 200 nM; IC50 [4]: < 500 nM
Cc1cc(-c2nccc3c(Nc4cccc(C(F)(F)F)c4)c(N)oc23)ccn1	>50%	–	–	–
Nc1sc2ccccc2c1Nc1ccccc1	–	–	–	IC50 [4]: < 500 nM; IC50 [5]: 200 to 1000 nM
Nc1oc2c(-c3ccnc(N4CCOCC4)c3)nccc2c1Nc1ccc(F)c(Cl)c1	>50%	>=25 - 50%	>50%	–
Nc1oc2c(-c3ccncc3)nccc2c1Nc1ccc(F)c(Cl)c1	>50%	–	–	Kp at 1 h [11]: 0.47; Activity (Mus musculus [18]): 40 - 50%; Activity (CT26 [19]): Active; Activity (CT26 [20]): Active; Activity (CT26 [21]): 26 - 38%; Kp at 3 h [13]: 0.64; Kp at 0.5 h [14]: 0.67
Nc1oc2c(-c3ccc(F)c(F)c3)nccc2c1Nc1ccc(F)c(Cl)c1	>=25 - 50%	–	–	–
Nc1oc2c(-c3ccncc3)nc(F)cc2c1Nc1ccc(F)c(F)c1	>50%	>50%	>=25 - 50%	–
CCOC(=O)Nc1oc2c(C#N)nccc2c1N(C(=O)OCC)c1ccc(F)c(Cl)c1	–	<25%	>=25 - 50%	–
C#Cc1cccc(Nc2c(N)oc3c(CC)nccc23)c1	>50%	–	–	–
Cc1cc(-c2nccc3c(Nc4ccc(F)c(Cl)c4)c(N)oc23)ccn1	>50%	>50%	>50%	–
Nc1sc2cnccc2c1Nc1ccc(F)c(Cl)c1	<25%	–	–	–
Cc1cc(-c2nccc3c(Nc4ccc(F)c(F)c4)c(N)oc23)ccn1	>50%	>50%	>50%	–
CCOC(=O)Nc1oc2cnccc2c1N(C(=O)OCC)c1ccc(F)c(Cl)c1	>50%	>50%	>50%	–
N#Cc1nccc2c(Nc3ccc(F)c(Cl)c3)c(N)oc12	>50%	<25%	>=25 - 50%	–
